Measured values reported in US9428512B2, “Compounds” (GlaxoSmithKline LLC, priority 2012, dated 2016).

Columns and labels:
[1] = tested on: TNF-α induction in human whole blood; assay: Induction of TNF-α using fresh human whole blood (WB); type: cell-based; conditions: three donors, overnight incubation, cytokine release as % of 2 μM resiquimod control, read-out: mean pEC50 for TNF-α (converted)
Experimental: (§1) Assay for the Induction of Interferon-α and TNF-α Using Fresh Human Whole Blood (WB)
(§2) Compounds were prepared at 100× required concentration in DMSO in flat-bottom microtitre plates at a volume of 1.5 μL. Columns 1-10 contained a 1 in 4 serial dilution of the test compound. Included on each plate was a serial dilution of the TLR7/8 agonist resiquimod as a standard and Column 11 contained 1.5 μl of 200 μM resiquimod (giving a 2 μM final concentration, used to define the approximate maximal response to resiquimod). Each compound was assayed in duplicate for each donor.
(§3) Blood samples from three human donors were collected into sodium heparin (10 U/ml). 150 μl of whole Blood was dispensed into Col 1 to 11 of assay plates containing 1.5 μl of test compound or standard in DMSO. Plates were placed in an incubator overnight (37° C., 95% air, 5% CO2). Following the overnight incubation, plates were removed from the incubator & mixed on an orbital shaker for approximately 1 minute. 100 μl of 0.9% saline was added to each well and the plates mixed again on an orbital shaker. Plates were then centrifuged (2500 rpm, 10 mins), after which a sample of plasma was removed using a Biomek FX and assayed for both IFN-α and TNF-α using the MSD (Mesoscale Discovery) electrochemiluminescence assay platform. The IFN-α assay was carried out similarly to that described above. The TNF-α assay was carried out as per kit instructions (Cat No K111BHB).
(§4) Cytokine released was expressed as a percentage of the 2 μM resiquimod control (column 11). This percentage was plotted against compound concentration and the pEC50 for the response determined by non-linear least squares curve fitting. For the IFN-α responses, generally a 4 parameter logistic model was selected. For the TNF-α responses where a clear maximum response was obtained (i.e. a well defined plateau in the response was observed) then a 4 parameter model was generally used. If the upper asymptote of the curve wasn't well defined then the curve fitting was generally constrained to a maximal response of 100% (i.e. to the response to 2 μM resiquimod) or to the response of the highest concentration tested if this was greater than the resiquimod response. Some curves were bell shaped for one or both cytokines and the cytokine data on the down slope of the bell shaped response (i.e. concentrations above those giving the maximal response) were generally excluded from the fit, usually with the exception of the concentration immediately above the peak response. Curve fitting thus concentrated on the up slope of the dose response curve.

[2] = tested on: IFN-α induction in human whole blood; assay: Induction of Interferon-α using fresh human whole blood (WB); type: cell-based; conditions: three donors, overnight incubation, cytokine release as % of 2 μM resiquimod control, read-out: mean pEC50 for IFN-α (converted)
Experimental: as §1, §2, §3, §4

Row | SMILES | EC50 [1] [µM] | EC50 [2] [µM]
1 | CCCCc1nc(N)c2[nH]cc(CCCCCN3CCNCC3)c2n1 [Example 1, 2-Butyl-7-(5-(piperazin-1-yl)pentyl)-5H-pyrrolo[3,2-d]pyrimidin-4-amine] | ≥ 5.01 | ≤ 1.58
2 | CCCCc1nc(N)c2[nH]c(C)c(CCCCCN3CCN(C(C)C)CC3)c2n1 [Example 3, 2-Butyl-7-(5-(4-isopropylpiperazin-1-yl)pentyl)-6-methyl-5H-pyrrolo[3,2-d]pyrimidin-4-amine] | ≥ 5.01 | ≤ 1.58
3 | CCCCc1nc(N)c2[nH]cc(CCCCCN3CCN(C(C)C)CC3)c2n1 [Example 2, 2-Butyl-7-(5-(4-isopropylpiperazin-1-yl)pentyl)-5H-pyrrolo[3,2-d]pyrimidin-4-amine] | ≥ 5.01 | ≤ 1.58
4 | CCCCc1nc(N)c2[nH]c(C)c(CCCCCN3CCN(CC)CC3)c2n1 [Example 4, 2-Butyl-7-(5-(4-ethylpiperazin-1-yl)pentyl)-6-methyl-5H-pyrrolo[3,2-d]pyrimidin-4-amine] | ≥ 5.01 | ≤ 1.58

More lines, now with the values ahead:

Row | EC50 [1] [µM] | EC50 [2] [µM] | SMILES
5 | ≥ 5.01 | ≤ 1.58 | CCCCc1nc(N)c2[nH]cc(CCCN3CCN(CC)CC3)c2n1 [Example 6, 2-Butyl-7-(3-(4-ethylpiperazin-1-yl)propyl)-5H-pyrrolo[3,2-d]pyrimidin-4-amine]
6 | ≥ 5.01 | ≤ 1.58 | CCCCc1nc(N)c2[nH]cc(CCCCN3CCN(C(C)C)CC3)c2n1 [Example 7]
7 | ≥ 5.01 | ≤ 1.58 | CCCCc1nc(N)c2[nH]cc(CCCN3CCNCC3)c2n1 [Example 5, 2-Butyl-7-(3-(piperazin-1-yl)propyl)-5H-pyrrolo[3,2-d]pyrimidin-4-amine]
